The values that follow come from PMC5431086, “The Rational Design of Therapeutic Peptides for Aminopeptidase N using a Substrate-Based Approach” (Scientific Reports, 2017).

“And” between values parts separate entries of the source, which are not always exact repeats. Equal values may be shown once. Positions of bridges follow the written chain, without caps; N, C: chain ends. Non-standard residues stand in square brackets, D forms with d. Residues, ends and D or L forms follow the SMILES beside them. No end group written: not given here. Nle = CCCC[C@H](N)C(=O)O Where only a bound is given, the exact number is not on record here.

In the first data set the target is aminopeptidase A (Homo sapiens, UniProt Q07075). Kind of data set: Protease selectivity panel, aminopeptidase A.
Sequence of aminopeptidase A (Q07075 whole entry, species assumed): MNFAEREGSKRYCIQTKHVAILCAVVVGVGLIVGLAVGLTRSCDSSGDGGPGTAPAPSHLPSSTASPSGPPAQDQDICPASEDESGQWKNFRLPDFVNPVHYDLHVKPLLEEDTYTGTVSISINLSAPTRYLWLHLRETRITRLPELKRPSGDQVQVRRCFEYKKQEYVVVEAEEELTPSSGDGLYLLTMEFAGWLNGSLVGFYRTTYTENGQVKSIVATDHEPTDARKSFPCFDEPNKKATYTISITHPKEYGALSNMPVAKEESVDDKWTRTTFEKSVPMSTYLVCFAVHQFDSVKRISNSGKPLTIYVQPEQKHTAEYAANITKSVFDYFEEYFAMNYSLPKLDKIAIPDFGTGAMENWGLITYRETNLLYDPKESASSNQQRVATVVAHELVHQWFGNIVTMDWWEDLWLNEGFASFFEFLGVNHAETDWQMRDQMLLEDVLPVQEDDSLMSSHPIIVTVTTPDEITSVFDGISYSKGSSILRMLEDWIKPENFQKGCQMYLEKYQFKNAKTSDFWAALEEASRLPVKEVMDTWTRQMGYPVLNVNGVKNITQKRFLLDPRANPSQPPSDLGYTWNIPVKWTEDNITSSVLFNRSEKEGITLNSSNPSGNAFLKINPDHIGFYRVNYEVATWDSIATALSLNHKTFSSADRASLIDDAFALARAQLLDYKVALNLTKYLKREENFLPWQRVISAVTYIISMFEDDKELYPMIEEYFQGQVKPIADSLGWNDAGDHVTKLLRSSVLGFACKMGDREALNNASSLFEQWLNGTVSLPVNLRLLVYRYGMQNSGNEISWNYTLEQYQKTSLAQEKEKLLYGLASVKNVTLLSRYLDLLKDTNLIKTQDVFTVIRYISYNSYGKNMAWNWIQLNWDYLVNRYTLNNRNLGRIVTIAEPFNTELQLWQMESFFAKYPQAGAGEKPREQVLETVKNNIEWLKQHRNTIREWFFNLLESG
Conditions: not given
Type of data set: biochemical. The protocol:
(§1) Next, the specificity of the lead peptide inhibitor cyc-LHSPW was tested against a panel of cancer-associated proteases with wide-ranging substrate specificities (Fig. 5A). APN was the only protease inhibited by cyc-LHSPW with chymotrypsin, trypsin, PSA, KLK7, aminopeptidase A, and the exopeptidase FAP all having Ki values above 100 μM. Having assessed selectivity for purified APN, we next evaluated the ability of cyc-LHSPW to preferentially bind to cells that express surface APN using flow cytometry (Fig. 5B). […] The expression of cell surface-associated APN was examined in the androgen receptor negative neuroendocrine prostate cancer cell lines PC3 and DU145 using a commercially available antibody. […] The peptide was next tested on frozen PC3 and DU145 tumor xenografts sections.
(§2) Figure 5 Determining the specificity of cyc-LHSPW for APN. (A) The cyc-LHSPW peptide was specific inhibitor of APN when compared to a panel of proteases. (B) Fluorescence microscopy of frozen PC3 (left) and DU145 (right) xenograft sections with cyc-LHSPW-(Gly)4-FITC. Sections were incubated with 250 nM of cyc-LHSPW-(Gly)4-FITC overnight and then visualized. The merged fluoresence channels are cyc-LHSPW-(Gly)4-FITC (green) and nuclei (DAPI, blue). (C) Analysis of APN inhibitor binding to PC3 (left) and DU145 cells (right) by flow cytometry. […]
For orientation: Ki means the dissociation constant of the complex between target and ligand, obtained from inhibition or displacement. The molecule `CC(C)C[C@@H]1NC(=O)[C@@H](N)CSSC[C@@H](C(=O)O)NC(=O)[C@H](Cc2c[nH]c3ccccc23)NC(=O)[C@@H]2CCCN2C(=O)[C@H](CO)NC(=O)[C@H](Cc2c[nH]cn2)NC1=O` [cyc-LHSPW, Cys-LHSPW-Cys] (H-CLHSPWC-OH; disulfide 1-7) registered a Ki of over 100 µM.

In the next data set the target is T1, hAPN (aminopeptidase N) (Homo sapiens, UniProt P15144).
T1 construct: human APN ecdomain (residues 66–967) were expressed and purified as previously described; honeybee-melittin signal peptide (N); His6 (C); made in house; host or cells: insect cells
T1 sequence (P15144 66-967): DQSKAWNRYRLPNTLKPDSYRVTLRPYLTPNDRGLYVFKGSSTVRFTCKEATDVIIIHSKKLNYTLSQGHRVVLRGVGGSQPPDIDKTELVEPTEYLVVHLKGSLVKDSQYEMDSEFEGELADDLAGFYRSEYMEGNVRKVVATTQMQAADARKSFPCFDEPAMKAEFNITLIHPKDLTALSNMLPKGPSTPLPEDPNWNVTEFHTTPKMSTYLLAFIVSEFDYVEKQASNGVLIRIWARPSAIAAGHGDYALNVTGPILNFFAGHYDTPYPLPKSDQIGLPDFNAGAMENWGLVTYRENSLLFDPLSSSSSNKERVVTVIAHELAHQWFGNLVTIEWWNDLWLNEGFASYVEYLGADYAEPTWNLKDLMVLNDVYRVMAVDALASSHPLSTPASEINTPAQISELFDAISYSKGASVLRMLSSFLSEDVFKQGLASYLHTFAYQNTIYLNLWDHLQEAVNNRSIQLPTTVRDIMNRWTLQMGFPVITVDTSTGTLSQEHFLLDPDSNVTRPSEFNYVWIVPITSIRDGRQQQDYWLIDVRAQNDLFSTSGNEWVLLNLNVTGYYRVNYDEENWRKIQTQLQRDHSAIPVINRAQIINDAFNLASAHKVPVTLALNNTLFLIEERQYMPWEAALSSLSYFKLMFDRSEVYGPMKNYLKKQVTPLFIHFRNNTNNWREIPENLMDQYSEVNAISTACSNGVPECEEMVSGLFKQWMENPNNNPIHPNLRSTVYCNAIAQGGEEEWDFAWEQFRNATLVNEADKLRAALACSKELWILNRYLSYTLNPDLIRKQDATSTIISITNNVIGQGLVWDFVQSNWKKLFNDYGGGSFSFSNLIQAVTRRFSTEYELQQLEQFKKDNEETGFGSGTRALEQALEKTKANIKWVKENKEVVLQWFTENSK
Kind of data set: Inhibition of cleavage of fluorogenic alanine substrate (H-Ala-AMC) by APN. Type of data set: biochemical. As to conditions: 0.1 μM APN, 100 μM H-Ala-AMC, pH 7.2, 37 °C, triplicate. The protocol: Five-residue long peptides containing P1–P4′ residues from primary cleavages in the library were synthesized and tested for their ability to prevent the cleavage of a fluorogenic alanine substrate by hAPN.
The peptides used in this study were custom synthesized by AAPPTEC of Louisville, KY using traditional Fmoc solid-phase peptide synthesis. All of the peptides were purified and characterized by AAPPTEC. […] Inhibition assays were performed in triplicate in a 100 mM Tris pH 7.2, Brij 35 0.0002% w/v assay buffer at 37 °C with 0.1 μM APN and 100 μM H-Ala-AMC (fluorophore). Values were recorded by Infinite pro plate reader every 2 minutes for 30 minutes with laser parameters set for excitation at 355 nm and emission at 460 nm.
For orientation: IC50 means the concentration needed to halve the response being measured. Higher therefore signals lower potency. Molecule `C[C@H](NC(=O)[C@@H](N)CC(=O)O)C(=O)N[C@@H](CCCNC(=N)N)C(=O)N[C@@H](CCCCN)C(=O)O` [DARK] (H-DARK-OH) came in with an IC50 of over 500 µM. The molecule `C[C@@H](O)[C@H](NC(=O)[C@H](CO)NC(=O)[C@@H](N)CC(=O)O)C(=O)N[C@@H](Cc1ccccc1)C(=O)O` [DSTF] (H-DSTF-OH) had an IC50 of over 500 µM. Regarding `N[C@@H](Cc1c[nH]cn1)C(=O)N[C@@H](CO)C(=O)N1CCC[C@H]1C(=O)N[C@@H](Cc1c[nH]c2ccccc12)C(=O)O` [HSPW] (H-HSPW-OH; N-terminus and C-terminus assumed), the IC50 is 43 µM and 43.3 µM. The same measure, in the same setting: the figure for `CCCC[C@H](N)C(=O)N[C@@H](CC(=O)O)C(=O)N[C@@H](CCC(N)=O)C(=O)N[C@H](C(=O)N[C@@H](Cc1ccc(O)cc1)C(=O)O)[C@@H](C)CC` [nDQIY] (H-[Nle]DQIY-OH) is over 500 µM; for `CCCC[C@H](N)C(=O)N[C@@H](Cc1c[nH]cn1)C(=O)N[C@@H](CO)C(=O)N1CCC[C@H]1C(=O)N[C@@H](Cc1c[nH]c2ccccc12)C(=O)O` [nHSPW] (H-[Nle]HSPW-OH) it is 6.5 ± 0.5 µM; for ADARK [ADARK] it is over 500 µM. Same read-out and setting: the figure for AHLFN [AHLFN] is over 500 µM; for AHSPW [AHSPW] it is 9.4 ± 1.1 µM; for AHSTF [AHSTF] it is over 500 µM. EHSPW [EHSPW] displayed an IC50 of 115 ± 17.2 µM. Take EPKVA [EPKVA]: the IC50 is over 500 µM.

On to FDWWG [FDWWG], for which the IC50 was over 500 µM.

FSLSK [FSLSK] had an IC50 of over 500 µM.

The molecule FYLRE [FYLRE] registered an IC50 of over 500 µM. The same measure, in the same setting: the figure for INDFL [INDFL] is over 500 µM; for LDSTF [LDSTF] it is over 500 µM.

The same data set, now with this note: APN; Ki from IC50 by Cheng-Prusoff equation; 0.1 μM APN, 100 μM H-Ala-AMC.
In turn, `CC(C)C[C@@H]1NC(=O)[C@@H](N)CSSC[C@@H](C(=O)O)NC(=O)[C@H](Cc2c[nH]c3ccccc23)NC(=O)[C@@H]2CCCN2C(=O)[C@H](CO)NC(=O)[C@H](Cc2c[nH]cn2)NC1=O` [cyc-LHSPW, Cys-LHSPW-Cys] (H-CLHSPWC-OH; disulfide 1-7) displayed a Ki of 24.7 ± 1.4 µM.

For a further data set, the target named is PSA (Homo sapiens, UniProt P07288). Kind of data set: Protease selectivity panel, PSA. Type of data set: biochemical.
Sequence of PSA (P07288 25-261): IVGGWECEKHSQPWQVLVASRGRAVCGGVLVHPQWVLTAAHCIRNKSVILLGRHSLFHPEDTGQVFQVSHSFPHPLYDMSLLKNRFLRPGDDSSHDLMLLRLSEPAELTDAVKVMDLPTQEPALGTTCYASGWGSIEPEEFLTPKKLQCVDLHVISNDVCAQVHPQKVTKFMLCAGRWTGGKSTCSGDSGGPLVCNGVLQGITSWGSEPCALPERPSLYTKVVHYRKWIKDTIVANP
Conditions: not given
The protocol:
as §1, §2
Molecule `CC(C)C[C@@H]1NC(=O)[C@@H](N)CSSC[C@@H](C(=O)O)NC(=O)[C@H](Cc2c[nH]c3ccccc23)NC(=O)[C@@H]2CCCN2C(=O)[C@H](CO)NC(=O)[C@H](Cc2c[nH]cn2)NC1=O` [cyc-LHSPW, Cys-LHSPW-Cys] (H-CLHSPWC-OH; disulfide 1-7) had a Ki of over 100 µM.

System in a further data set: not listed separately
Kind of data set: Toxicity study, i.v. administration. Type of data set: in vivo. Conditions: 40 mg/kg three time a week for four weeks (t.i.w. x4), mice. The protocol: The potential therapeutic efficacy of cyc-LHSPW was next tested in vitro using the PC3 and DU145 cell lines. […] Prior to in vivo therapeutic efficacy studies, a toxicity study was performed with the i.v. administration of cyc-LHSPW. […] Mice bearing established PC3 and DU145 xenografts were treated systemically via tail vein injection with 40 mg/kg of the tumor homing APN peptide cyc-NGR or the cyc-LHSPW peptide t.i.w. x4 (Fig. 6B). […] This therapeutic effect persisted to the end of the study with the cyc-LHSPW-treated mice having a tumor volume of 309.3 ± 92.7 mm^3 at day 35. […] PC3 tumors were removed and stained for the cellular proliferation marker Ki67.
For the molecule `CC(C)C[C@@H]1NC(=O)[C@@H](N)CSSC[C@@H](C(=O)O)NC(=O)[C@H](Cc2c[nH]c3ccccc23)NC(=O)[C@@H]2CCCN2C(=O)[C@H](CO)NC(=O)[C@H](Cc2c[nH]cn2)NC1=O` [cyc-LHSPW, Cys-LHSPW-Cys] (H-CLHSPWC-OH; disulfide 1-7), the tolerability result was “well tolerated, i.e. no signs of morbidity”.

Staying with this data set, now noted: multiple doses of 100 mg/kg, mice.
Regarding `CC(C)C[C@@H]1NC(=O)[C@@H](N)CSSC[C@@H](C(=O)O)NC(=O)[C@H](Cc2c[nH]c3ccccc23)NC(=O)[C@@H]2CCCN2C(=O)[C@H](CO)NC(=O)[C@H](Cc2c[nH]cn2)NC1=O` [cyc-LHSPW, Cys-LHSPW-Cys] (H-CLHSPWC-OH; disulfide 1-7), the tolerability result is “resulted in cachexia”.

Staying with this data set, now noted: single high dose of 100 mg/kg, mice.
With `CC(C)C[C@@H]1NC(=O)[C@@H](N)CSSC[C@@H](C(=O)O)NC(=O)[C@H](Cc2c[nH]c3ccccc23)NC(=O)[C@@H]2CCCN2C(=O)[C@H](CO)NC(=O)[C@H](Cc2c[nH]cn2)NC1=O` [cyc-LHSPW, Cys-LHSPW-Cys] (H-CLHSPWC-OH; disulfide 1-7), the tolerability result is given as “well tolerated”.

For another data set, the target named is T2, FAP (Homo sapiens, UniProt Q12884).
T2 sequence (Q12884 1-760): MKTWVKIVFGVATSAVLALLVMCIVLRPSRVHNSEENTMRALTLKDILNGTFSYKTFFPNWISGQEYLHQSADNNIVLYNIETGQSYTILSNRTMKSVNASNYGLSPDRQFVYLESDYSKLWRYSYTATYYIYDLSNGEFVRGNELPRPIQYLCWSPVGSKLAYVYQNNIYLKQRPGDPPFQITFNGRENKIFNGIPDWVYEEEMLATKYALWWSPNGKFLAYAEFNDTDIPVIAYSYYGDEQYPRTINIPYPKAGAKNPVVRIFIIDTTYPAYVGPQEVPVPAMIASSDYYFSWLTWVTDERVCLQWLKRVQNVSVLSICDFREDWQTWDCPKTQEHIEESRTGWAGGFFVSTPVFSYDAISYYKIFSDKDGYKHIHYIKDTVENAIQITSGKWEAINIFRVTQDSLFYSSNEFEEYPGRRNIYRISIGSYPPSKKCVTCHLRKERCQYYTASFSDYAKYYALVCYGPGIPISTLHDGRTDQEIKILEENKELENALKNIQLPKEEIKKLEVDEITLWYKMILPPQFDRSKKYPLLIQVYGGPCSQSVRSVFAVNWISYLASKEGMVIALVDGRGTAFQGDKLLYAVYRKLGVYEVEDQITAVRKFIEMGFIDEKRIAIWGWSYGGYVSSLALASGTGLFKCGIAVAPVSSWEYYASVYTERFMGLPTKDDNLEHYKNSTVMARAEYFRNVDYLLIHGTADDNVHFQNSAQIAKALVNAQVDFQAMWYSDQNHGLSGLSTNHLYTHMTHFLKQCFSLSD
Kind of data set: Protease selectivity panel, FAP.
Conditions: not given
Type of data set: biochemical. The protocol:
as §1, §2
In the case of `CC(C)C[C@@H]1NC(=O)[C@@H](N)CSSC[C@@H](C(=O)O)NC(=O)[C@H](Cc2c[nH]c3ccccc23)NC(=O)[C@@H]2CCCN2C(=O)[C@H](CO)NC(=O)[C@H](Cc2c[nH]cn2)NC1=O` [cyc-LHSPW, Cys-LHSPW-Cys] (H-CLHSPWC-OH; disulfide 1-7), the Ki is over 100 µM.

The target in a further data set is KLK7 (Homo sapiens, UniProt P49862). Kind of data set: Protease selectivity panel, KLK7. Type of data set: biochemical.
Sequence of KLK7 (P49862 30-253, species assumed): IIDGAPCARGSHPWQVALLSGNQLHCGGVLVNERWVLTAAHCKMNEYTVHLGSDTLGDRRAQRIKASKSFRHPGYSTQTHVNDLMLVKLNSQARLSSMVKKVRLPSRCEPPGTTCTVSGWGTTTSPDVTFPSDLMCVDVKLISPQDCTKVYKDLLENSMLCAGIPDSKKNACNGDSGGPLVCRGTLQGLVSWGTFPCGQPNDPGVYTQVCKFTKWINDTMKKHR
Conditions: not given
The protocol: as §1, §2
With `CC(C)C[C@@H]1NC(=O)[C@@H](N)CSSC[C@@H](C(=O)O)NC(=O)[C@H](Cc2c[nH]c3ccccc23)NC(=O)[C@@H]2CCCN2C(=O)[C@H](CO)NC(=O)[C@H](Cc2c[nH]cn2)NC1=O` [cyc-LHSPW, Cys-LHSPW-Cys] (H-CLHSPWC-OH; disulfide 1-7), the Ki was over 100 µM.
